Assay results as given in patent US8680054B2, “Suspension type topical formulations comprising cyclic depsipeptide” (Novartis AG, priority 2011, dated 2014).

Experiments:
[1] = Stability of the compound of formula (II) in hydrophilic environment; type: physicochemical
[2] = Solubility of the compound of formula (II); type: physicochemical

## CC[C@H](C)[C@@H]1NC(=O)[C@H](Cc2ccc(O)cc2)N(C)C(=O)[C@H]([C@@H](C)CC)N2C(=O)[C@H](CC[C@H]2O)NC(=O)[C@H](CC(C)C)NC(=O)[C@@H](NC(=O)[C@H](CCC(N)=O)NC(=O)C(C)C)[C@@H](C)OC1=O [compound of formula (II)]
[1]; presence of water
  stability in the presence of water: subject to hydrolysis
[1]; water and polar organic solvents/co-solvents
  stability in a hydrophilic environment: tendency to degradeation
[2]; lipophilic excipients
  solubility in lipophilic excipients: low solubility
[2]; polar organic solvents
  solubility in polar organic solvents: good solubility
[2]; water and aqueous buffers
  solubility in water and aqueous buffers: moderate solubility
